Assay results published in publication PMC5354814, “In silico and in vitro drug screening identifies new therapeutic approaches for Ewing sarcoma” (Oncotarget, 2016).

What was measured:
[1] = tested on: human neutrophil and monocyte; design: method as in ref 19 (a number printed in a supplementary file, which may have a reference list of its own: not looked up in the article's list); details: 0.1 - 1.0 µg auranofin/mL; cited from earlier work
mouse spleen cells = tested on: mouse spleen cells; design: method as in ref 19 (a number printed in a supplementary file, which may have a reference list of its own: not looked up in the article's list); details: 1 x 10^-4M and 1 x 10^-5M; cited from earlier work
Rhesus monkey skin = tested on: Rhesus monkey skin; design: method as in ref 19 (a number printed in a supplementary file, which may have a reference list of its own: not looked up in the article's list); details: 1.5 x 10^-4M; cited from earlier work
[2] = design: method as in ref 19 (a number printed in a supplementary file, which may have a reference list of its own: not looked up in the article's list); details: intravenous, 20 mg auranofin/kg; cited from earlier work
mouse L929 fibroblasts = tested on: mouse L929 fibroblasts; design: method as in ref 19 (a number printed in a supplementary file, which may have a reference list of its own: not looked up in the article's list); details: 1µM auranofin; cited from earlier work
Salmonella = tested on: Salmonella; design: method as in ref 18, ref 19; details: cited from earlier work
ovarian cancer = tested on: ovarian cancer; design: method as in PMID 25502607; details: 3 mg auranofin orally twice per day, 10 patients, 95% CI: 1.3–3.8; cited from earlier work
[3] = Formulation and PK studies of auranofin (blood gold, ICPMS); format: in vivo, BALB/c mice
Experimental: Ridaura® (auranofin) is typically delivered orally (capsules containing 3 mg auranofin) and has been repurposed in several clinical trials with limited results (i.e., clinicaltrials.gov identifier: NCT01419691, NCT02126527, and NCT02126527). […] Additionally, the ability to increase the dose of auranofin to achieve higher blood concentrations of gold was limited by dose-limiting gastrointestinal side effects (diarrhea, loose stools, nausea, vomiting and abdominal cramps). For our studies we dosed BALB/c mice orally at 10 mg/Kg with different formulations of auranofin suspensions prepared in 0.5% hydroxypropyl methyl cellulose to help assure dose uniformity. We compared the ground contents of Ridaura® capsules, the ground pure auranofin drug substance, auranofin suspension containing 0.5% sodium lauryl sulfate (a surfactant), auranofin suspensions with the pH adjusted to pH = 1, 4 and 7, auranofin suspension dosed into fasted versus high fat diet mice and finally a solution of auranofin prepared in 5% dimethyl sulfoxide (DMSO) with a pH = 1. Pharmacokinetic studies were conducted on all of these formulation variations. Blood samples from 3 mice at each time point (0, 1, 2, 4, 8, 12, 24, 48 and 96 hours) and the whole blood was assayed by ICPMS for gold.
We additionally studied dose accumulation of the gold by comparing a formulation of Ridaura® capsule contents as described above and dosing at 10 mg/Kg single dose versus dosing the mice once daily for 5 days. The PK study compared the gold content in whole blood samples as described above for the single dose versus the gold content in whole blood samples from the multidose arm with whole blood collected at the end of each 24 hour dosing period before the next dose (24, 48, 72, 96 and 120 hours) and then whole blood collected every 24 hours for 5 additional days (144, 168, 192, 216 and 240 hours) and assayed for gold content. The results of these formulation and PK studies are shown in Supplementary Table S2.
These findings led us to develop and assess injectable (i.v. and i.p.) formulations of auranofin. By defining maximum tolerated dose (MTD) following i.v. and i.p. administration of solution and suspension formulations of auranofin, our intent was to evaluate auranofin alone and in combination with ganetespib at MTD in mouse xenograft studies using the more convenient i.p. route of administration. Following administration of the solution formulation of auranofin i.v. and i.p., the maximum tolerated dose was estimated at 1 mg/kg and 6 mg/kg, respectively. Following a single i.p. suspension dose of auranofin, the maximum tolerated dose was 16 mg/kg. This dose was reduced to 12 mg/kg and dose tolerance was evaluated after 5 daily doses of auranofin suspension i.p. to determine the effects of the accumulation of gold in the blood due to the slow elimination of gold. Based on the i.p. suspension dose tolerance studies, the auranofin suspension formulation and dose level of 12 mg/kg was selected for evaluation in xenograft mouse studies.

[4] = cited from earlier work
[5] = design: method as in ref 19 (a number printed in a supplementary file, which may have a reference list of its own: not looked up in the article's list); details: cited from earlier work
Saccharomyces = tested on: Saccharomyces; design: method as in ref 18, ref 19; details: cited from earlier work
[6] = design: method as in ref 19 (a number printed in a supplementary file, which may have a reference list of its own: not looked up in the article's list); details: 5 and 10 µg gold/kg for 2 weeks; cited from earlier work
[7] = design: method as in ref 19 (a number printed in a supplementary file, which may have a reference list of its own: not looked up in the article's list); details: 0.625 - 10 mg gold/kg p.o.; cited from earlier work
[8] = design: method as in ref 19 (a number printed in a supplementary file, which may have a reference list of its own: not looked up in the article's list); details: cited from earlier work; remark: listed apart in the source
BALB/3T3 cell = tested on: BALB/3T3 cell; design: method as in ref 18, ref 19; details: cited from earlier work
[9] = cited from earlier work; remark: listed apart in the source
platelet = tested on: platelet; design: method as in ref 19 (a number printed in a supplementary file, which may have a reference list of its own: not looked up in the article's list); details: 10 µg/mL; cited from earlier work
[10] = Suspension, single 10 mg/kg Oral

For `CC(=O)OC[C@H]1O[C@@H]([S-])[C@H](OC(C)=O)[C@@H](OC(C)=O)[C@@H]1OC(C)=O.CCP(CC)CC.[Au+]` [Auranofin, auranofin], the chemotaxis [1] is given as “inhibited”, the plaque-forming cells (mouse spleen cells) is given as “marked inhibition” and the histamine release (Rhesus monkey skin) is given as “inhibition”. The “48-hour passive cutaneous anaphylaxis” value [2] was “inhibition”, the ADCC (mouse L929 fibroblasts) was “inhibited” and the mutation effects (Salmonella) was “no m utation effects”. For the same compound, the “median PFS” value (ovarian cancer) was 2.8 months, the Cmax ([3]; Solution, five daily 4 mg/kg IP) was 10384 ng/mL and the “AUC (0 to ∞)” value ([3]; Solution, single 4 mg/kg IP) was 210.336 µg·h/mL. For the same compound, the Cmax ([3]; Solution, single 4 mg/kg IP) was 4071 ng/mL, the “Half Life” value ([3]; Solution, single 4 mg/kg IP) was 29.7 h and the Tmax ([3]; Solution, single 4 mg/kg IP) was 1 h. For the same compound, the Cmax ([3]; Suspension, five daily 10 mg/kg Oral) was 5780 ng/mL, the “AUC (0 to ∞)” value [3, 10] was 187.7 µg·h/mL and the Cmax [3, 10] was 3680 ng/mL. For the same compound, the “Half Life” value [3, 10] was 28.4 h, the Tmax [3, 10] was 24 h and the “AUC (0 to ∞)” value ([3]; Suspension, single 12 mg/kg IP) was 550.846 µg·h/mL. The Cmax ([3]; Suspension, single 12 mg/kg IP) was 13068 ng/mL, the “Half Life” value ([3]; Suspension, single 12 mg/kg IP) was 26.4 h and the Tmax ([3]; Suspension, single 12 mg/kg IP) was 1 h. For the same compound, the “effect of oral formulation variations on amount of gold absorbed” value ([3]; oral 10 mg/kg, various suspensions and a solution) was “unable to alter the amount of auranofin (gold) absorbed”, the LD50 ([4]; Rat CD, F, PO) was 330 mg/kg and the “acute oral LD50” value ([4]; adult rats) was 265 mg/kg. The minimum lethal dose ([4]; rats) was 30 mg/kg, the “lethality (LD50) in rats when given concomitantly with other drugs” value ([4]; warfarin at usual human daily dose, clonidine, propoxyphene at five times, others at ten or twenty times) was “potentiated” and the “murine antibody production against SRBC” value [5] was “inconsistent inhibition”. The mutation effects (Saccharomyces) was “no m utation effects”, the “hemagglutinating IgG antibodies to SRBC and antibodies to mouse fibroblasts” value [6] was “suppressed” and the “suboptimal delayed hypersensitivity response” value [7] was “stimulatory effect”. For the same compound, the “effect on hemodynamic and electrocardiographic parameters, pulmonary function, CNS activity, gastric mucosa or endocrine system” value [8] was “no significant effect”, the mutation effects (BALB/3T3 cell) was “no m utation effects” and the “teratogenic effects in pregnant mice” value ([9]; 5 mg/kg/day) was “no ter atogenic”. For the same compound, the “embryotoxic or teratogenic effect in mice” value ([9]; oral 0.2, 1 and 5 mg/kg/day, days 6-15 of pregnancy) was “no embryotoxic or teratogenic effect” and the “epinephrine-, ADP-, or collagen-induced platelet aggregation” value (platelet) was “potent”.
